Laboratory results as given in PubChem BioAssay AID256 (DTP/NCI, 2004).
“And” between values parts separate entries of the source, which are not always exact repeats. Identical values can stand only once. Toxic doses and inconclusive results are not listed. The calls were made as follows: active = survival T/C of 150% or more; inactive = T/C below 125% in these data. Non-standard residues stand in square brackets, D forms with d. Residues, ends and D or L forms follow the SMILES beside them. ξ: configuration not given here. *: point of attachment. ξF = NC(Cc1ccccc1)C(=O)O; Cbz = O=C(OCc1ccccc1)*

Tested on: CD2F1 mice, L1210 leukemia ip, survival T/C
Assay: NCI In Vivo Anticancer Drug Screen. Data for tumor model L1210 Leukemia (intraperitoneal) in CD2F1 (CDF1) mice
Conditions: higher = longer survival
In short: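 Implant tumor; dose compound or vehicle; measure endpoint in both groups; report treated divided by control.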

[1] = endpoint: mean survival time, dose: 12.5 mg/kg/injection, schedule: Q04DX002 (ip), vehicle: saline with Tween-80
[2] = endpoint: mean survival time, dose: 25.0 mg/kg/injection, schedule: Q04DX002 (ip), vehicle: saline with Tween-80
[3] = endpoint: mean survival time, dose: 50.0 mg/kg/injection, schedule: Q04DX002 (ip), vehicle: saline with Tween-80
[4] = endpoint: mean survival time, dose: 12.5 mg/kg/injection, schedule: Q04DX003 (ip), vehicle: saline with Tween-80
[5] = endpoint: mean survival time, dose: 200.0 mg/kg/injection, schedule: Q04DX003 (ip), vehicle: saline
[6] = endpoint: mean survival time, dose: 400.0 mg/kg/injection, schedule: Q04DX003 (ip), vehicle: saline
[7] = endpoint: mean survival time, dose: 100.0 mg/kg/injection, schedule: Q01DX009 (ip), vehicle: saline with Tween-80
[8] = endpoint: mean survival time, dose: 100.0 mg/kg/injection, schedule: Q04DX003 (ip), vehicle: saline with Tween-80
[9] = endpoint: mean survival time, dose: 200.0 mg/kg/injection, schedule: Q01DX009 (ip), vehicle: saline with Tween-80
[10] = endpoint: mean survival time, dose: 200.0 mg/kg/injection, schedule: Q04DX003 (ip), vehicle: saline with Tween-80
[11] = endpoint: mean survival time, dose: 400.0 mg/kg/injection, schedule: Q01DX009 (ip), vehicle: saline with Tween-80
[12] = endpoint: mean survival time, dose: 400.0 mg/kg/injection, schedule: Q04DX003 (ip), vehicle: saline with Tween-80
[13] = endpoint: mean survival time, dose: 100.0 mg/kg/injection, schedule: Q01DX001 (ip), vehicle: saline
[14] = endpoint: mean survival time, dose: 200.0 mg/kg/injection, schedule: Q01DX001 (ip), vehicle: saline
[15] = endpoint: mean survival time, dose: 400.0 mg/kg/injection, schedule: Q01DX001 (ip), vehicle: saline
[16] = endpoint: mean survival time, dose: 25.0 mg/kg/injection, schedule: Q01DX009 (ip), vehicle: saline with Tween-80
[17] = endpoint: mean survival time, dose: 25.0 mg/kg/injection, schedule: Q01DX009 (ip), vehicle: saline
[18] = endpoint: mean survival time, dose: 50.0 mg/kg/injection, schedule: Q01DX009 (ip), vehicle: saline with Tween-80
[19] = endpoint: mean survival time, dose: 50.0 mg/kg/injection, schedule: Q01DX009 (ip), vehicle: saline
[20] = endpoint: mean survival time, dose: 100.0 mg/kg/injection, schedule: Q04DX003 (ip), vehicle: saline
[21] = endpoint: median survival time, dose: 25.0 mg/kg/injection, schedule: Q01DX009 (ip), vehicle: saline with Tween-80

Measured: T/C

C/C(=N/O)C1=C(O)C(Cc2ccccc2)NC1=O (stereo not drawn)
inactive: [1] 100 % of control | [2] 121 % of control | [3] 103 % of control

CC1=Nc2ccccc2N2C1=CC1=C(C(=O)c3cc4ccccc4cc3C1=O)C2C (stereo not drawn)
inactive: [4] 101 % of control | endpoint: mean survival time, dose: 25.0 mg/kg/injection, schedule: Q04DX003 (ip), vehicle: saline with Tween-80 122 % of control | endpoint: mean survival time, dose: 50.0 mg/kg/injection, schedule: Q04DX003 (ip), vehicle: saline with Tween-80 101 % of control | [5] 94 % of control | [6] 90 % of control

CCOC(=O)c1ccc(OC(=O)Nc2ccccc2OC)cc1
inactive: [7] 96 % of control | [8] 103 % of control | [9] 92 % of control | [10] 100 % of control | [11] 94 % of control | [12] 102 % of control

NC(=O)C(Cc1ccccc1)NC(=O)CNC(=O)CNC(=O)OCc1ccccc1 (stereo not drawn) (Cbz-Gly-Gly-[ξF]-NH2)
inactive: [8] 97 % of control | [10] 96 % of control | [12] 99 % of control

CC(C)(C)C1(C#N)C(=O)C2CCCCC21 (stereo not drawn)
inactive: [1] 105 % of control | [2] 97 % of control | [3] 94 % of control

CCCCc1c(N)nc(N)nc1N
inactive: endpoint: mean survival time, dose: 18.7 mg/kg/injection, schedule: Q01DX001 (ip), vehicle: saline with Tween-80 104 % of control | endpoint: mean survival time, dose: 37.5 mg/kg/injection, schedule: Q01DX001 (ip), vehicle: saline with Tween-80 100 % of control | endpoint: mean survival time, dose: 75.0 mg/kg/injection, schedule: Q01DX001 (ip), vehicle: saline with Tween-80 109 % of control

C[n+]1ccncc1
inactive: [13] 102 % of control | [14] 102 % of control | [15] 104 % of control

CCC(CC)CN1CCSC1=S
inactive: [7] 101 % of control | [9] 101 % of control | [11] 96 % of control

CN(C)[C@@H]1C(=O)C(C(N)=O)=C(O)[C@@]2(O)C(=O)C3=C(O)c4c(O)ccc(Cl)c4[C@@](C)(O)[C@H]3C[C@@H]12
inactive: endpoint: mean survival time, dose: 12.5 mg/kg/injection, schedule: Q01DX009 (ip), vehicle: saline with Tween-80 98 % of control | endpoint: mean survival time, dose: 12.5 mg/kg/injection, schedule: Q01DX009 (ip), vehicle: saline 107 % of control | [16] 97 % of control | [17] 101 % of control | [18] 93 % of control and 108 % of control | [19] 103 % of control | [7] 104 % of control and 111 % of control | endpoint: mean survival time, dose: 100.0 mg/kg/injection, schedule: Q01DX009 (ip), vehicle: saline 113 % of control | [9] 102 % of control

Nc1ccc(-c2c(N)ncc3ccccc23)cc1
inactive: endpoint: mean survival time, dose: 50.0 mg/kg/injection, schedule: Q04DX003 (ip), vehicle: DMSO 101 % of control

Cc1ccc(-c2oc3ccccc3c(=O)c2O)cc1
inactive: endpoint: mean survival time, dose: 50.0 mg/kg/injection, schedule: Q01DX001 (ip), vehicle: saline 98 % of control | [13] 92 % of control | [14] 98 % of control | [15] 98 % of control

Clc1ccc(COCc2ccccc2Cn2ccnc2)cc1
inactive: [16] 98 % of control | [18] 104 % of control | [7] 96 % of control and 105 % of control

CN(C)c1ccc(C2(O)C3CCC2CC3)cc1 (stereo not drawn)
inactive: endpoint: median survival time, dose: 25.0 mg/kg/injection, schedule: Q04DX002 (ip), vehicle: saline with Tween-80 90 % of control | endpoint: median survival time, dose: 50.0 mg/kg/injection, schedule: Q04DX002 (ip), vehicle: saline with Tween-80 100 % of control | endpoint: median survival time, dose: 100.0 mg/kg/injection, schedule: Q04DX002 (ip), vehicle: saline with Tween-80 90 % of control

Oc1c(Cl)cc(Cl)cc1C=NCC1CCC(CN=Cc2cc(Cl)cc(Cl)c2O)CC1 (stereo not drawn)
inactive: [10] 90 % of control | [12] 90 % of control

CCOC(=O)c1c(C)c2c(n1C)CC/C(=C\N1CCCCC1)C2=O
inactive: endpoint: mean survival time, dose: 100.0 mg/kg/injection, schedule: Q04DX002 (ip), vehicle: saline with Tween-80 111 % of control | endpoint: mean survival time, dose: 200.0 mg/kg/injection, schedule: Q04DX002 (ip), vehicle: saline with Tween-80 118 % of control | endpoint: mean survival time, dose: 400.0 mg/kg/injection, schedule: Q04DX002 (ip), vehicle: saline with Tween-80 96 % of control

OC1(c2ccccc2)CCN(C/C=C/c2ccccc2)CC1
inactive: endpoint: mean survival time, dose: 25.0 mg/kg/injection, schedule: Q01DX001 (ip), vehicle: saline with Tween-80 102 % of control | endpoint: mean survival time, dose: 50.0 mg/kg/injection, schedule: Q01DX001 (ip), vehicle: saline with Tween-80 101 % of control | endpoint: mean survival time, dose: 100.0 mg/kg/injection, schedule: Q01DX001 (ip), vehicle: saline with Tween-80 102 % of control and 103 % of control

c1ccc(CC2=NCCO2)cc1
inactive: [20] 100 % of control | [5] 95 % of control | [6] 98 % of control

COc1ccc(CCNC(=O)Cc2cc(OC)c(OC)cc2[N+](=O)[O-])cc1OC
inactive: [13] 94 % of control | [14] 97 % of control | [15] 94 % of control

Cc1nc(C)c(Br)s1
inactive: endpoint: mean survival time, dose: 25.0 mg/kg/injection, schedule: Q04DX003 (ip), vehicle: saline 112 % of control | endpoint: mean survival time, dose: 50.0 mg/kg/injection, schedule: Q04DX003 (ip), vehicle: saline 104 % of control | [20] 106 % of control

S=C(Nc1ccc(Cl)cc1)Nc1ccc(Cl)cc1 (tested in a mixture with another compound)
inactive: [7] 92 % of control | [8] 91 % of control | [9] 97 % of control | [10] 88 % of control | [11] 90 % of control | [12] 93 % of control

Clc1ccc2scc3c4ccccc4nc-3c2c1
inactive: [17] 104 % of control | [19] 101 % of control

N#CSCc1cc(=O)c(O)co1
inactive: endpoint: mean survival time, dose: 6.25 mg/kg/injection, schedule: Q04DX003 (ip), vehicle: saline with Tween-80 104 % of control | [4] 94 % of control

CCCCCCCCCCCCCCCCCCOCC(CO)OC (stereo not drawn)
inactive: [21] 104 % of control | endpoint: median survival time, dose: 50.0 mg/kg/injection, schedule: Q01DX009 (ip), vehicle: saline with Tween-80 101 % of control | endpoint: median survival time, dose: 100.0 mg/kg/injection, schedule: Q01DX009 (ip), vehicle: saline with Tween-80 103 % of control | endpoint: median survival time, dose: 200.0 mg/kg/injection, schedule: Q01DX009 (ip), vehicle: saline with Tween-80 102 % of control

C1CC[N-]CC1.[Cl][Au]([Cl])[Cl]
inactive: [16] 97 % of control | [18] 100 % of control | [8] 96 % of control

N=C(N)c1ccc(N=NNc2ccc(C(=N)N)cc2)cc1
inactive: endpoint: median survival time, dose: 12.5 mg/kg/injection, schedule: Q01DX009 (ip), vehicle: saline with Tween-80 117 % of control | [21] 102 % of control

Cc1c(Cl)c(N)c(Cl)c(Cl)c1Cl
inactive: [8] 101 % of control | [10] 104 % of control | [12] 96 % of control
